According to US20010041716A1, “Compositions and methods for locally treating inflammatory diseases” (priority 1999, published 2001):
Converted amounts (≈) assume the structure as drawn. Like-named read-outs stand apart in the source and are kept apart here. Marks after values point to notes of the source that are not given here.

Tests used:
[1] = Procedure: Differential Thermal Analysis: The heat of fusion (ΔHf) and the entropy of fusion (ΔSf) of thalidomide and its N-alkyl analogs were determined with a Perkin-Elmer DSC7 Differential Scanning Calorimeter (DSC), which was calibrated with an indium standard.
Using this surmise, the solubility parameters for all the solutes were calculated. […] In each case the solutions are considered ideal at the peak of their parabolas.

[2] = n-octanol / phosphate buffer (pH 6.4)
[3] = 25° C.
[4] = for Lag time TL = SD / Permeability coefficient P ± SD × 10^−3: pH 6
Procedure: Skin Preparation and Permeation: The human cadaver skin used in the permeation studies was obtained from the Anatomical Donation Program at the University of Michigan. Vertical Franz diffusion cells with a 4 ml capacity receptor compartment and a 0.8 cm^2 diffusion area were used in the permeation studies. The epidermal layer of the skin was mounted carefully onto the lower half of the cells of the difflusion apparatus with the stratum corneum facing up. The receptor compartments were filled with isotonic phosphate buffer (pH 6.4). The temperature of the cell system was maintained at 32° C. by circulating water from a constant temperature water bath through the jacket of the lower compartment of each cell assembly. To begin an experiment, the donor compartment was charged with 300 μl of fresh prepared saturated solution of the drug and covered immediately with Parafilm to prevent any significant evaporation of volatile components of the applied medium during the absorption experiment. At predetermined times, samples were taken and were directly assayed by HPLC to determine the drug concentration of each. Care was taken to maintain skin conditions.
The permeability coefficient for a given run was calculated from Fick's law of diffuision: [formula]
dC/dt is the steady-state slope of a plot of the amount of substance which had penetrated the skin against time in terms of jig/h. It was determined by taking the ratio of the total amount permeated in an interval of time to the length of the time interval.
A is the difflusional area, which was 0.8 cm^2.
ΔC is the concentration differential existing across the membrane. This was effectively equal to the saturation concentration in the donor phase (μg/ml) as, through total exchange sampling, a near zero receiver concentration (sink condition) was closely approximated. AC is, in effect, the thermodynamic force driving mass transfer. The maximum driving force is seen at the saturation solubility (excluding supersaturation).
VR is the volume of the receiver compartment (4 ml).
The permeation parameters (flux, J; lag time, TL and permeability coefficient, P) of thalidomide and its N-alkyl analogs from their saturated aqueous solutions (pH 6.0) and an ethanol/water/octanol vehicle are summarized in Table 4. The permeation data were plotted as the cumulative amount of drug penetrated through skin as a function of time. The steady-state flux was determined from the slope of the linear portion of the cumulative amount-time plot. The lag time (TL) was determined by extrapolating the linear portion of the curve to its intersection with the time axis. […] A bar plot of the mean steady-state flux and standard deviations (SD) for thalidomide and its N-alkyl analogs from water can be seen in FIG. 5. […] Typical cumulative amount permeated-time profiles for thalidomide and its N-alkyl analogs from the ethanol/water/octanol (Formulation C) vehicle are shown in FIG. 6.

[5] = test system: TNFα; details: PBMCs stimulated in vitro with LPS; previous studies; cited from earlier work

Activity of solid phase a2^s, ΔCp = 0 [1] | Activity of solid phase a2^s, ΔCp = ΔSp [1] | Ln X2,ideal, ΔCp = 0 [1] | Ln X2,ideal, ΔCp = ΔSr [1] | Solubility parameter δ2 (Hexane), ΔCp = 0 [1] | Solubility parameter δ2 (Hexane), ΔCp = ΔSr [1] | Koct ± SD (octanol/water partition coefficient) [2] | Solubility, Hexane ± SD [3] | Solubility, Water (pH 6.4) ± SD [3] | Solubility, Water (pH 6.4) ± SD ([3]; listed as N-methyl thalidomide) | Maximum steady-state flux [4] | Lag time TL = SD [4] | Permeability coefficient P ± SD × 10^−3 [4] | Solubility, Water (pH 6.4) ± SD ([3]; listed as thalidomide) | SMILES | Inhibition of TNFα production [5]
1.03 × 10^−1 | 1.54 × 10^−1 | −2.27 | −1.87 | 12.2 (cal/cm^3)^½ | 12.3 (cal/cm^3)^½ | 14.1 ± 1.05 | 90 ± 0 µg/mL (≈ 331 µM) | 275.9 ± 6.39 μg/ml | 276 μg/ml | 11.47 μg/cm^2/h | 2.8 ± 0.5 h | 1.17 ± 0.22 × 10^−3 (cm/h) | – | CN1C(=O)CCC(N2C(=O)c3ccccc3C2=O)C1=O (stereo not shown) [N-Methyl Thalidomide, N-methyl thalidomide] | –
1.29 × 10^−1 | 1.64 × 10^−1 | −2.05 | −1.81 | 11.2 (cal/cm^3)^½ | 11.2 (cal/cm^3)^½ | 129 ± 1.05 | 220 ± 10 µg/mL (≈ 670 µM) | 57.3 ± 1.46 μg/ml | – | – | 3 ± 1.6 h | 19.68 ± 6.31 × 10^−3 (cm/h) | – | CCCCCN1C(=O)CCC(N2C(=O)c3ccccc3C2=O)C1=O (stereo not shown) [N-Pentyl Thalidomide, N-pentyl thalidomide] | –
1.29 × | 8.07 × | −6.65 | −4.82 | 13.2 (cal/cm^3)^½ | 13.7 (cal/cm^3)^½ | 3.09 ± 1.03 | 0.1 ± 0 µg/mL (≈ 0.387 µM) | 52.1 ± 1.49 μg/ml | – | – | 2.2 ± 1.4 h | <0.16 ± 0.00^b) × 10^−3 (cm/h) | 52 μg/ml | O=C1CCC(N2C(=O)c3ccccc3C2=O)C(=O)N1 (stereo not shown) [Thalidomide, a-phthalimidoglutarimide, reference compound] | partially inhibit TNFα production
